The values below come from ChEMBL document CHEMBL1138883, “Synthesis and biological evaluation of new asymmetrical bisintercalators as potential antitumor drugs” (2006).

Assay [1] deals with PC-3. Kind of assay: Cytotoxicity against PC3 cells by SRB assay after 48 hrs. The class given is functional. The settings on record: Homo sapiens, PC-3, 48 h. On the technique in general: Sulforhodamine B stains cellular protein and so reports cell mass.
Assay [2] can be described thus: Ratio of K(app) for [A-T] to [G-C].
Assay [3] concerns PC-3. Kind of assay: Induction of early apoptosis in PC3 cells by DNA fragmentation assay. It is filed as functional, cell-based. To be noted: Homo sapiens.
For assay [4], the system named is PC-3. Kind of assay: Induction of apoptosis in PC3 measured as percentage of late apoptotic cells by biparametric PI/Annexin V assay at 2.6 uM after 24 hrs. It is filed as functional, Homo sapiens.
The subject of assay [5] is PC-3. Kind of assay: Induction of apoptosis in PC3 measured as percentage of early apoptotic cells by biparametric PI/Annexin V assay at 2.6 uM after 8 hrs. The class given is functional, Homo sapiens.
In assay [6] the test system is PC-3. Kind of assay: Reduction in PC3 cell viability after 48 hrs by FDA flow cytometer assay. It is filed as functional, cell-based. To be noted: Homo sapiens. In general terms: In flow cytometry, cells or beads pass a laser one at a time.
Assay [7] concerns PC-3. Kind of assay: Induction of apoptosis in PC3 cells measured as percentage of living cells by biparametric PI/Annexin V assay at 2.6 uM after 24 hrs. The class given is functional, Homo sapiens.
The subject of assay [8] is PC-3. Kind of assay: Induction of apoptosis in PC3 measured as percentage of necrotic cells by biparametric PI/Annexin V assay at 2.6 uM after 8 hrs. It is filed as functional, Homo sapiens.
The test system of assay [9] is PC-3. Kind of assay: Induction of apoptosis in PC3 measured as percentage of necrotic cells by biparametric PI/Annexin V assay at 2.6 uM after 24 hrs. It is filed as functional, Homo sapiens.
The subject of assay [10] is PC-3. Kind of assay: Induction of apoptosis in PC3 measured as percentage of late apoptotic cells by biparametric PI/Annexin V assay at 2.6 uM after 8 hrs. The class given is functional, Homo sapiens.
In assay [11] the test system is PC-3. Kind of assay: Induction of apoptosis in PC3 measured as percentage of late apoptotic cells by biparametric PI/Annexin V assay at 2.6 uM after 48 hrs. It is filed as functional, Homo sapiens.
Assay [12] has as its system PC-3. Kind of assay: Induction of apoptosis in PC3 measured as percentage of early apoptotic cells by biparametric PI/Annexin V assay at 2.6 uM after 4 hrs. It is filed as functional, Homo sapiens.
Assay [13] deals with PC-3. Kind of assay: Induction of apoptosis in PC3 measured as percentage of necrotic cells by biparametric PI/Annexin V assay at 2.6 uM after 48 hrs. The class given is functional, Homo sapiens.
The subject of assay [14] is PC-3. Kind of assay: Induction of apoptosis in PC3 cells measured as percentage of living cells by biparametric PI/Annexin V assay at 2.6 uM after 8 hrs. The class given is functional, Homo sapiens.
In assay [15] the test system is PC-3. Kind of assay: Induction of apoptosis in PC3 cells measured as percentage of living cells by biparametric PI/Annexin V assay at 2.6 uM after 48 hrs. It is filed as functional, Homo sapiens.
The test system of assay [16] is PC-3. Kind of assay: Induction of apoptosis in PC3 measured as percentage of necrotic cells by biparametric PI/Annexin V assay at 2.6 uM after 4 hrs. The class given is functional, Homo sapiens.
In assay [17] the test system is PC-3. Kind of assay: Induction of apoptosis in PC3 cells measured as percentage of living cells by biparametric PI/Annexin V assay at 2.6 uM after 4 hrs. It is filed as functional, Homo sapiens.
Assay [18] relates to PC-3. Kind of assay: Induction of apoptosis in PC3 measured as percentage of early apoptotic cells by biparametric PI/Annexin V assay at 2.6 uM after 48 hrs. It is filed as functional, Homo sapiens.
In assay [19] the test system is PC-3. Kind of assay: Induction of apoptosis in PC3 measured as percentage of late apoptotic cells by biparametric PI/Annexin V assay at 2.6 uM after 4 hrs. The class given is functional, Homo sapiens.
The subject of assay [20] is PC-3. Kind of assay: Induction of apoptosis in PC3 measured as percentage of early apoptotic cells by biparametric PI/Annexin V assay at 2.6 uM after 24 hrs. It is filed as functional, Homo sapiens.

Activity calls are given as the source filed them. The rule behind the calls is not given here.

By GI50 is commonly meant the concentration giving 50% growth inhibition. A word on the TGI: it is the concentration giving total growth inhibition. A high value points to lower sensitivity of the cells.

Regarding `CN(C)CCCNC(=O)c1ccc(NCCCN(C)CCCNc2ccc3c(=O)n(CCCN(C)C)c(=O)n4c5ccccc5c(=O)c2c34)c2c(O)c3ccccc3nc12`, in the assay with PC-3 [1], halving of growth (GI50) required 250 nM, the LC50 (concentration for 50% net cell kill) worked out at 2500 nM and total growth inhibition (TGI) required 600 nM. Also, the Selectivity ratio in assay [2] turned out to be 14.

Take `CN(C)CCNC(=O)c1ccc(NCCCN(C)CCCN2C(=O)c3cccc4cccc(c34)C2=O)c2c(O)c3cc([N+](=O)[O-])ccc3nc12`: in the assay on PC-3 [1], the GI50 was 89 nM, the LC50 (concentration for 50% net cell kill) amounted to 3000 nM and the TGI stood at 630 nM. The Selectivity ratio in assay [2] came to 1.4.

As for `CN(C)CCN1C(=O)c2cccc3cc([N+](=O)[O-])cc(c23)C1=O` [MITONAFIDE], in the assay with PC-3 [1], halving of growth (GI50) required 150 nM and the TGI worked out at 3800 nM.

For `CN(C)CCn1c(=O)c2ccc(NCCCN(C)CCCN3C(=O)c4cccc5cc([N+](=O)[O-])cc(c45)C3=O)c3c(=O)c4ccccc4n(c1=O)c23.Cl`, the LC50 (concentration for 50% net cell kill) in the assay with PC-3 [1] was determined as 2600 nM. Moreover, the result in the assay on PC-3 [3] was Active. For the same compound, the Activity was 6.3% with PC-3 [4]; 16.3% with PC-3 [5]; “Time-dependent effect” in the assay with PC-3 [6]; 31.5% in the assay on PC-3 [7]; 26.9% in the assay on PC-3 [8]; 28.6% in the assay on PC-3 [9]. In addition, the Activity came out at 7.8% in the assay with PC-3 [10]; 7.5% in the assay on PC-3 [11]; 12.5% in the assay with PC-3 [12]; 87.3% in the assay on PC-3 [13]; 49% in the assay with PC-3 [14]; 1.2% in the assay with PC-3 [15]. For the same compound, the Activity in the assay on PC-3 [16] turned out to be 16.3%; with PC-3 [17], 67.7%; with PC-3 [18] it was 4%; in the assay on PC-3 [19], 3.5%; with PC-3 [20] it was 33.6%. In assay [2], the Selectivity ratio was found to be 4.3.

As to `CN(C)CCNC(=O)c1ccc(NCCCN(C)CCCN2C(=O)c3cccc4cccc(c34)C2=O)c2c(O)c3ccccc3nc12`, in the assay with PC-3 [1], it took 520 nM to inhibit growth by half (GI50), the LC50 (concentration for 50% net cell kill) was 5400 nM and total growth inhibition (TGI) required 2000 nM. Besides, the Selectivity ratio in assay [2] worked out at 4.1.

In the assay on PC-3 [1], `CN(C)CCCn1c(=O)c2ccc(NCCCN(C)CCCN3C(=O)c4cccc5cccc(c45)C3=O)c3c(=O)c4ccccc4n(c1=O)c23` registered a GI50 of 420 nM, an LC50 (concentration for 50% net cell kill) of 3800 nM and a TGI of 830 nM. Also, the Selectivity ratio in assay [2] came out at 3.4.

With `CN(C)CCCNC(=O)c1ccc(NCCCN(C)CCCN2C(=O)c3cccc4cc([N+](=O)[O-])cc(c34)C2=O)c2c(O)c3ccccc3nc12`, in the assay with PC-3 [1], halving of growth (GI50) required 50 nM, the LC50 (concentration for 50% net cell kill) was found to be 3600 nM and net growth stopped (TGI) at 90 nM. Moreover, in [2], the Selectivity ratio stood at 6.1.

`CN(C)CCn1c(=O)c2ccc(NCCCN(C)CCCN3C(=O)c4cccc5cccc(c45)C3=O)c3c(=O)c4ccccc4n(c1=O)c23` showed an LC50 (concentration for 50% net cell kill) with PC-3 [1] of 2600 nM. In addition, the Selectivity ratio in [2] came out at 2.4.

On to `COc1ccc2c(c1)c(=O)c1c(NCCCN(C)CCCN3C(=O)c4cccc5cccc(c45)C3=O)ccc3c(=O)n(CCN(C)C)c(=O)n2c31`, for which, in the assay with PC-3 [1], the GI50 came out at 51 nM, the LC50 (concentration for 50% net cell kill) turned out to be 4000 nM and the TGI was determined as 850 nM. Moreover, the Selectivity ratio in assay [2] was 4.5.
